Literature values, collected in patent US12557816B2, “Compositions for controlling a plant disease” (NutriAg Ltd., priority 2017, dated 2026).

Conditions: phosphorous acid: second dissociation; hydrogen phosphite ion: conjugate base

In the case of `OP(O)O` [Phosphorous acid, phosphorous acid], the pKa is listed as “about 1.3”.

For “hydrogen phosphite [hydrogen phosphite (or phosphonate) ion]”, the pKa is given as “about 6.7”.
